Literature values as cited in patent US20080200492A1, “METHODS FOR THE TREATMENT OF ALCOHOL ABUSE, ADDICTION AND DEPENDENCY” (priority 2006, published 2008).

Tested on: golden hamster
Settings: cited from earlier work

SMILES: O=c1c(-c2ccc(O)cc2)coc2cc(O[C@@H]3O[C@H](CO)[C@@H](O)[C@H](O)[C@H]3O)ccc12 [Daidzin]
- Alcohol drinking, water or food intake: decreases alcohol drinking in the golden hamster, without producing a decrease in water or food intake
